These results are taken from patent US20250186423A1, “METHODS OF TREATING CANCER AND OTHER CONDITIONS WITH A MU OPIOID RECEPTOR ANTAGONIST” (priority 2022, published 2025).

For data set [1], the system named is chicken CD3, MMD and CD244. Put plainly: Immune cell infiltration into CAM breast cancer tumors (RT-qPCR). In kind it is in vivo. Conditions: axelopran used in the presence of bevacizumab and pembrolizumab. On the procedure:
Infiltration of host immune cells into the tumor environment is required for host reduction of tumor progression. Among the tumors collected at E18, after tumor weighing, 10 tumors per group (n=10) were used for RNA extraction, in 6 groups (Gr. 1, 2, 3, 4, 7, and 8). After that, extracted RNA was analyzed by RT-qPCR with specific primers for chicken CD3, MMD and CD244 sequences. For all points done in qPCR, expression of human GAPDH was also analyzed, as reference gene expression, and used to normalize immune biomarker expression between samples. Calculation of Cq for each sample, mean Cq and relative amounts of immune cells for each group were directly managed by the Bio- Rad CFX Maestro software (see FIG. 11).
The infiltration of chicken CD3^+, CD244^+, and MMD^+ immune cells into breast cancer tumors grown on the upper CAM in the presence of axelopran, pembrolizumab, bevacizumab and combinations are shown in FIG. 11.

Data set [2] relates to Mouse colon cancer (MC38) cells. Nature of the data set: Syngeneic mouse colon cancer model. In kind it is in vivo, mice (C57BL6). The procedure: The syngeneic mouse model assay (FIG. 3B) allows a complete system where tumor progression is quantified in the presence of endogenous immune surveillance and an active gut microbiome.
Mouse colon cancer (MC38) cells were amplified in vitro prior to implantation. On the day of injection, cells were harvested, counted including a trypan blue viability dye (cut-off 80%), and resuspended in PBS at the appropriate concentration. The cells were injected subcutaneously in the right flank of Female mice (C57BL6), 5 weeks of age (18-22 gm body weight) at 5.106 cells/mouse in 200 μL PBS within 30 minutes after harvesting. After 15-18 days of tumor growth, mice were randomized into treatment groups at 10 animals/group. Animals were weighed thrice weekly and tumor growth measured using callipers. The tumour volume (TV) was extrapolated to a sphere using the formula shown below: […]
by calculating the mean radius from the two measurements.
The results of these studies are shown in FIG. 12A, 12B, 13 as well as Table 2-3. The tumor growth curves in animals treated with the MOR antagonist, axelopran, mouse anti-PD-1 or a combination of both treatments are shown in FIGS. 12A and 12B. FIG. 12A and FIG. 12B show MC38 colon cancer tumor growth in syngeneic mice treated with Vehicle (Control), axelopran (1 mg/kg, p.o. daily), mouse anti-PD-1 (12.5 mg/kg i.p.,3×-weekly) or axelopran plus anti-PD-1.

In data set [3] the test system is MDA-MB-231 tumor cell line. Nature of the data set: Breast cancer tumor progression in the CAM assay. The format is in vivo, chicken. The procedure:
The chicken egg chorioallantoic membrane assay (FIG. 3B) allows for the study of tumor progression of injected tumor cells in the presence of active endogenous immune surveillance, but again in the absence of an active gut microbiome.
Breast cancer cell tumor progression was assessed in the chicken egg, chorioallantoic membrane assay. The experimental timing is shown below in FIG. 9. Fertilized chicken eggs were incubated for 9 days. The MDA-MB-231 tumor cell line was cultivated in D-MEM medium supplemented with 10% FBS and 1% penicillin/streptomycin. On day E9, cells were detached with trypsin, washed with complete medium and suspended in graft medium. An inoculum of 1×10^6 cells was added onto the CAM of each egg (E9) and then eggs were randomized into groups. Tumor cells (breast cancer MDA-MB231 cells (10^6)) were then seeded on the upper CAM and further incubated for 3 three days. Test agents were then added to the same site at selected concentrations. Following five days of further incubation the growing tumor was excised, freed of CAM tissue, and weighed.
For this testing, the chicken eggs were treated with: axelopran; pembrolizumab (Pembro); axelopran+pembrolizumab; bevacizumab (Beva); axelopran+bevacizumab; pembrolizumab+bevacizumab; and axelopran+pembrolizumab+bevacizumab. Axelopran was used at dose of 1.0 mg/kg; pembrolizumab was used at a dose of 2.5 mg/kg; and bevacizumab was used at a dose of 4 mg/kg. The results of this testing are shown in FIG. 10A, 10B, 11 and Table 2-2.

The subject of data set [4] is blood vessels reaching MDA-MB-231 tumor on the CAM. Put plainly: Chicken egg chorioallantoic membrane (CAM) tumor angiogenesis, blood vessel count. The format is in vivo. The settings on record: 0.1, 0.5, 1.0 mg/kg; absence of exogenous opioids. The procedure: Two independent model systems were used to explore the role of MOR and endogenous opioids on angiogenesis. Human umbilical vein endothelial cells (HUVEC) in culture initiate angiogenesis through tube formation when cultured on an appropriate extracellular matrix. In a living system, the chicken egg chorioallantoic membrane assay (CAM) allows direct visualization of new blood vessel formation.
Furthermore, a chicken egg chorioallantoic membrane assay was conducted to determine blood vessel formation in the presence of increasing MOR antagonist (axelopran) concentrations (0, 0.1, 0.5, 1.0 mg/kg). Docetaxel was used as a control. For the testing CAM membranes were incubated in the presence of the MOR antagonist or docetaxel under the following conditions: Fertilized White Leghorn eggs were incubated at 37.5° C. with 50% relative humidity for 9 days. At that moment (E9), the CAM was dropped down by drilling a small hole through the eggshell into the air sac, and a 1 cm window was cut in the eggshell above the CAM. At least 20 eggs (depending on embryo surviving rate after 9 days of development, there could be more than 20 eggs per group) were grafted for each group. […] The number of blood vessels that reach the tumor and feed the tumor proliferation were counted in triplicate to evaluate tumor angiogenesis. […]

For another data set, the system named is Zebra fish larvae. Put plainly: Zebra fish larvae mortality in combination therapy study. The format is in vivo, zebrafish. On the procedure:
The toxicity screening period covered the first 72 hours of development. The efficacy evaluation of Axelopran was made using M-001 melanoma cells and matching TILs. Two-day old zebrafish embryos were subcutaneously injected into the perivitelline space with approximately 700 M-001 cells labelled with Dil red fluorescent dye and intravenously injected with TILs with or without pembrolizumab antibody. At the same time, MOR-antagonist test doses were added to the water. Following an additional 72 hours of further development, the fish were assayed for tumor growth (size of original tumor implant) and metastasis disseminated to the distal caudal venous plexus (CVP) three days after implantation.
For study investigating combination therapy, the Zebra fish larvae mortality was also investigated.

Setting [5] is: absence of exogenous opioids, breast cancer.

As to `NC(=O)c1cccc(C2CC3CCC(C2)N3CCN(CC2CCCCC2)C(=O)[C@@H](O)CO)c1` (stereo partly drawn) [axelopran, 3-[(1R,3r,5S)-8-(2-{(cyclohexylmethyl)[(2S)-2,3-dihydroxypropanoyl]amino}ethyl)-8-azabicyclo[3.2.1]octan-3-yl]benzamide], the “infiltration of CD3+ lymphocytes, CD244+ natural killer cells and MMD+ macrophages into the tumor tissue” value in data set [1] was “synergistically enhanced the infiltration”. The “Tumor Size @ day 13, Mean” value in data set [2] (axelopran 1 mg/kg p.o. daily, mouse anti-PD-1 12.5 mg/kg i.p. 3×-weekly) is 1,479 mm^3. Further, the “Survival, Median” value in data set [2] (axelopran 1 mg/kg, anti-PD-1) turned out to be 13.0 days. Besides, the “Growth Rate, Mean” value in data set [2] (initial 8 days of treatments, axelopran 1 mg/kg p.o. daily, mouse anti-PD-1 12.5 mg/kg i.p.) was 84.5 mm^3/day. Also, the “interaction of axelopran activity with anti-PD-1 treatment” value is recorded as “synergistic” in data set [2] (presence of a microbiome, colon cancer) and “additive” in data set [3] (absence of a microbiome, breast cancer). The “Breast cancer tumor progression index (tumor size × metastasis), Mean” value in data set [3] (5 days of growth in the upper CAM, axelopran 1.0 mg/kg, pembrolizumab 2.5 mg/kg, bevacizumab 4 mg/kg) is reported as 0.63 fraction of negative control. In data set [3] (setting [5]), the metastasis entry is reported as “inhibits metastasis”. Moreover, the tumor growth result in data set [3] (setting [5]) is recorded as “inhibits tumor growth”. Also, the “angiogenesis (blood vessel formation, CAM)” value in data set [4] was “inhibit angiogenesis”. Further, the “Zebra fish larvae mortality” value is “significantly reduced this mortality” in the data set on Zebra fish larvae (axelopran added with TILS and TILS plus pembrolizumab); “no significant mortality” in the data set with Zebra fish larvae (axelopran alone, 72-hour period after exposure at 48 hours post-fertilization).
